Assay results published in publication PMC12222587, “A2B adenosine receptor-triggered intracellular calcium mobilization: Cell type-dependent involvement of Gi, Gq, Gs proteins and protein kinase C” (Purinergic Signalling, 2025).
Entries after “also recorded” stand apart in the source; their conditions may differ. Read-outs that look alike come from different tables or passages of the source. *1 amine or outer side, *2 acyl side, *3 side chain or, on linkers, in order; H or OH if unused. Where a SMILES comes first, the peptide text is derived from it. Bridges are numbered along the chain shown (N, C = ends). [ ]: non-standard residue; d: D form. The star is where a group is joined. Leu(3R-OH,Nα-propionyl) = CCC(=O)N[C@H](C(=O)*)[C@H](O)C(C)C; X1 = CC(C)[C@@H](O[*:3])[C@H](N[*:1])C(=O)[*:2]; NMeT = CN[C@H](C(=O)O)[C@@H](C)O; dPhLac = O=C(O)[C@H](O)Cc1ccccc1; NMeA = CN[C@@H](C)C(=O)O; NMeDha = C=C(NC)C(=O)O

Legend:
P2Y1R [1] = target: T1, P2Y1R (Homo sapiens, UniProt P47900); assay: Intracellular calcium mobilization, HEK293 cells, native P2Y1R (MRS2365); assay type: cell-based; settings: for Effect on P2Y1R (MRS2365)-mediated calcium mobilization: Gq/11 siRNA 250 nM, PTX 200 ng/ml overnight, FR, YM 20 min before agonist
A1AR [2] = target: T2, A1AR (Homo sapiens, UniProt P30542); assay: Intracellular calcium mobilization, HEK293 cells expressing recombinant A1AR (CCPA); assay type: cell-based; settings: for Effect on A1AR (CCPA)-mediated calcium mobilization: HEK293 cells overexpressing A1AR, Gq/11 siRNA 250 nM, PTX 200 ng/ml overnight, FR, YM 20 min before agonist
T2 construct: expressed in transfected cells
T2 sequence (P30542 1-326): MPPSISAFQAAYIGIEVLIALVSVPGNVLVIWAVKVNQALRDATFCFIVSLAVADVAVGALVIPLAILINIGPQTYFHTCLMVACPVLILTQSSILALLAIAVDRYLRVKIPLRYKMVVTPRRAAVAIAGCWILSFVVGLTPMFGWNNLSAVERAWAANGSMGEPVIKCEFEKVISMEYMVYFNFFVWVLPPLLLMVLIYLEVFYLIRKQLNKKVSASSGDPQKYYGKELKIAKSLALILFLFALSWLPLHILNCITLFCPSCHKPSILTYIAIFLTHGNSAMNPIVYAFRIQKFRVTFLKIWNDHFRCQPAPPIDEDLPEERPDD

A2BAR [3] = target: T3, A2BAR (Homo sapiens, UniProt P29275); assay: Intracellular calcium mobilization, T24 bladder cancer cells, native A2BAR (NECA); assay type: cell-based
T3 sequence (P29275 1-332): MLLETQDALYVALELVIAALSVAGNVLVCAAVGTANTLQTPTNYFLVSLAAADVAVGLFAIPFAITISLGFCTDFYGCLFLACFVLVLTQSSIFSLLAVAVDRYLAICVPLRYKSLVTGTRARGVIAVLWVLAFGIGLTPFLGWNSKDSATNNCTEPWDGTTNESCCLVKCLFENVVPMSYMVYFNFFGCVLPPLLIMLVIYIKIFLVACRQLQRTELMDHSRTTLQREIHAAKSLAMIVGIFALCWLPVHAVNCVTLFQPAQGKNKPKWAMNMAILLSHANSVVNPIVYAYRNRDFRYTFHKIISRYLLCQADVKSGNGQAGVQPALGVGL

P2Y1R [4] = target: T1, P2Y1R; assay: Intracellular calcium mobilization, T24 bladder cancer cells, native P2Y1R (MRS2365); assay type: cell-based; settings: for Effect on native P2Y1R (MRS2365)-triggered calcium mobilization: YM 300 nM, FR 300 nM, PTX 200 ng/ml overnight
β2-adrenergic receptor = β2-adrenergic receptor (Homo sapiens, UniProt P07550); assay: Intracellular calcium mobilization, T24 bladder cancer cells, endogenous β2-adrenergic receptor; assay type: cell-based; settings: T24 cells, FR 300 nM, PMA 1 µM; for Effect on formoterol-induced calcium mobilization (β2-adrenergic receptor): YM 1 µM, PTX 200 ng/ml, CTX 500 ng/ml
P2Y1R [5] = settings: 1321N1 astrocytoma (P2Y1-overexpressing); ref Gao and Jacobson, 2017 [29]; cited from earlier work
A1AR [6] = settings: FR 100 nM; cited from earlier work
HMC-1 cells = settings: HMC-1 cells; ref Feoktistov et al., 1995 [30]; cited from earlier work
A1AR [7] = target: T2, A1AR; assay: cAMP accumulation, HEK293 cells, A1AR-mediated inhibition of forskolin-stimulated cAMP (CCPA); assay type: cell-based
Description: (§1) HEK293, T24 bladder cancer and MDA-MB-231 breast cell lines were cultured in DMEM medium containing 10% fetal bovine serum, 100 units/ml penicillin, 100 μg/ml streptomycin, and 2 μmol/ml glutamine. For the assay of 3′,5′-cyclic adenosine monophosphate (cAMP), cells were plated in 96-well (4 × 10^4 cells/well) clear plates in 100 μl of medium overnight. Cell culture medium was then replaced with 80 µl HBSS buffer containing 20 mM HEPES, phosphodiesterase inhibitor rolipram (10 μM), and 3 units/ml adenosine deaminase (Worthington Biochemical, Lakewood, NJ, USA) for 30 min followed by agonist addition to the mixture, which was then incubated for 20 min. The treatment of YM or FR was 20 min before agonist addition.

A2AAR = target: T4, A2AAR (Homo sapiens, UniProt P29274); assay: cAMP accumulation, HEK293 cells, A2AAR-mediated stimulation (CGS21680); assay type: cell-based
T4 construct: host or cells: HEK293
Description: as §1

A2B adenosine receptor = tested on: A2B adenosine receptor; set-up: method as in PMID 26954502; settings: CHO cells; FR 300 nM; cited from earlier work
A1AR [8] = settings: CHO cells; FR 300 nM; cited from earlier work
A1AR [9] = settings: overexpressed in CHO or 1321N1 astrocytoma cells; FR 100 nM; cited from earlier work
[10] = tested on: M2 muscarinic acetylcholine receptor; settings: overexpressed in CHO or 1321N1 astrocytoma cells; FR 100 nM; cited from earlier work
P2Y12 receptor = tested on: P2Y12 receptor; set-up: method as in PMID 26954502; settings: overexpressed in CHO or 1321N1 astrocytoma cells; FR 100 nM; cited from earlier work
A1AR [11] = settings: FR 100 nM; small but significant; cited from earlier work
[12] = tested on: M3 acetylcholine receptor; set-up: method as in PMID 26954502; settings: FR at both 100 and 300 nM; cited from earlier work
P2Y1 receptor [13] = tested on: P2Y1 receptor; set-up: method as in PMID 26954502; settings: FR at both 100 and 300 nM; cited from earlier work
[14] = tested on: M3 acetylcholine receptor; set-up: method as in PMID 26954502; settings: FR at 100 and 300 nM; cited from earlier work
P2Y1 receptor [15] = tested on: P2Y1 receptor; set-up: method as in PMID 26954502; settings: FR at 100 and 300 nM; cited from earlier work
LPA receptor = assay: Intracellular calcium mobilization, HEK293 cells, endogenous LPA receptor; assay type: cell-based, human; settings: endogenous LPA receptor, read-out: EC50 of induced intracellular calcium mobilization
A2BAR [16] = target: T3, A2BAR; set-up: method as in PMID 24853985; settings: T24 cells; cited from earlier work
[17] = T24 cells, YM 300 nM, FR 300 nM, PTX 200 ng/ml, CTX 500 ng/ml overnight, other inhibitors 20 min before NECA

T1 sequence (P47900 whole entry): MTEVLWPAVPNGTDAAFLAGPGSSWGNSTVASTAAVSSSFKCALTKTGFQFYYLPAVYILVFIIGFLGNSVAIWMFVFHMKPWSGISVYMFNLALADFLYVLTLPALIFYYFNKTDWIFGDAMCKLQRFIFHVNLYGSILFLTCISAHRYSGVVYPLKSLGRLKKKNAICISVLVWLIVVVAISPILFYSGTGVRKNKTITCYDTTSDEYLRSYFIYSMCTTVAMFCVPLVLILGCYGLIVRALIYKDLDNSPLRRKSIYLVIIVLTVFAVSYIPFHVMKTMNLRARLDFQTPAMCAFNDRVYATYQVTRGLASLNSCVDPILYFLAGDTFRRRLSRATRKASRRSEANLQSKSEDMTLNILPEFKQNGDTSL
T4 sequence (P29274 whole entry): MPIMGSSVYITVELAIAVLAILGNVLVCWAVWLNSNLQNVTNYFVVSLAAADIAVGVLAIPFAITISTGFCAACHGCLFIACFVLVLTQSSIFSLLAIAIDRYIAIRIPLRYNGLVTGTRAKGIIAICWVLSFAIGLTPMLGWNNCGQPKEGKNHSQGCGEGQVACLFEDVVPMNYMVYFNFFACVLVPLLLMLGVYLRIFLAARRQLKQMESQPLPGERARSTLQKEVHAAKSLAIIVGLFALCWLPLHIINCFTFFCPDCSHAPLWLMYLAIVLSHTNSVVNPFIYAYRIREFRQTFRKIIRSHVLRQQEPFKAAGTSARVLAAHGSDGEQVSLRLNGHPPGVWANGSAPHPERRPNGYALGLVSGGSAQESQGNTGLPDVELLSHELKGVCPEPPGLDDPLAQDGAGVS

Question: For Pertussis toxin [PTX], which “Effect on P2Y1R (MRS2365)-mediated calcium mobilization” value (P2Y1R [1]) is on record?
Answer: no effect; also recorded: PTX insensitive (1)

Question: What about the “Effect on A1AR (CCPA)-mediated calcium mobilization” value (A1AR [2]) of the same compound?
Answer: completely inhibited; also recorded: PTX sensitive (1)

Question: What about the “Effect on native A2BAR (NECA)-triggered calcium mobilization” value (A2BAR [3]; [17]) of the same compound?
Answer: diminished; also recorded: PTX sensitive (5)

Question: And the “Effect on native P2Y1R (MRS2365)-triggered calcium mobilization” value (P2Y1R [4])?
Answer: no effect; also recorded: PTX insensitive (5)

Question: And the “Effect on formoterol-induced calcium mobilization (β2-adrenergic receptor)” value (β2-adrenergic receptor)?
Answer: did not produce significant attenuation; also recorded: PTX not sensitive (6)

Question: What about the “Sensitivity of P2Y1R calcium mobilization to modulator” value (P2Y1R [5]) of the same compound?
Answer: PTX insensitive

Question: And the “Effect on A1AR-mediated Akt1/2/3 phosphorylation” value (A1AR [6])?
Answer: completely inhibited

Question: What about the “Sensitivity of NECA-induced Ca2+ increase to toxin” value (HMC-1 cells) of the same compound?
Answer: ^b NECA-induced Ca^2+ increase in HMC-1 cells was insensitive to CTX and PTX, Feoktistov et al., 1995 [30]

Question: With C=C1C(=O)N[C@@H](C)C(=O)N(C)[C@@H](C)C(=O)N[C@@H]([C@H](OC(=O)[C@@H](NC(=O)CC)[C@H](O)C(C)C)C(C)C)C(=O)N(C)[C@@H]([C@@H](C)OC)C(=O)O[C@H](C(C)C)[C@H](NC(C)=O)C(=O)O[C@H](Cc2ccccc2)C(=O)N1C [FR, FR900359] (Ac-[X1][dPhLac][NMeDha]A[NMeA][X1](Leu(3R-OH,Nα-propionyl))[NMeT](Me); ester 1-C) as the compound, how does the “Effect on P2Y1R (MRS2365)-mediated calcium mobilization” value (P2Y1R [1]) read?
Answer: inhibited; also recorded: fully sensitive

Question: And the IC50 (P2Y1R [1]; agonist MRS2365 1 µM, read-out: IC50 to inhibit P2Y1R-mediated calcium mobilization)?
Answer: 13.2 ± 3.2 nM

Question: What about the “Effect on A1AR (CCPA)-mediated calcium mobilization” value (A1AR [2]) of the same compound?
Answer: inhibited; also recorded: YM and FR – fully sensitive (2)

Question: What about the IC50 (A1AR [2]; HEK293 cells, overexpressed A1AR, agonist CCPA 1 µM, read-out: IC50 for inhibition of A1AR-mediated calcium mobilization) of the same compound?
Answer: 8.66 ± 3.23 nM

Question: And the “Effect on A1AR-mediated inhibition of cAMP accumulation” value (A1AR [7])?
Answer: did not affect

Question: And the “Effect on A2AAR-mediated stimulation of cAMP accumulation” value (A2AAR)?
Answer: did not affect

Question: What about the “Effect on native A2BAR (NECA)-triggered calcium mobilization” value (A2BAR [3]; [17]) of the same compound?
Answer: FR and YM insensitive (4); Gαq/11 siRNA insensitive (4)

Question: And the “Effect on native P2Y1R (MRS2365)-triggered calcium mobilization” value (P2Y1R [4])?
Answer: completely inhibited

Question: What about the “Effect on isoproterenol-induced calcium mobilization (β2-adrenergic receptor)” value (β2-adrenergic receptor) of the same compound?
Answer: diminished

Question: And the “Effect on formoterol-induced calcium mobilization (β2-adrenergic receptor)” value (β2-adrenergic receptor)?
Answer: diminished

Question: What about the “Effect on A2BAR-Gαs-mediated cAMP accumulation” value (A2B adenosine receptor) of the same compound?
Answer: no effect

Question: And the “Effect on A1AR-Gαi-mediated inhibition of forskolin-stimulated cAMP accumulation” value (A1AR [8])?
Answer: no effect

Question: What about the “Effect on Giβγ-mediated calcium mobilization, or IP1 accumulation, upon A1AR activation” value (A1AR [9]) of the same compound?
Answer: nearly complete inhibition

Question: What about the “Effect on Giβγ-mediated calcium mobilization, or IP1 accumulation, upon M2 receptor activation” value [10] of the same compound?
Answer: nearly complete inhibition

Question: What about the “Effect on Giβγ-mediated calcium mobilization, or IP1 accumulation, upon P2Y12R activation” value (P2Y12 receptor) of the same compound?
Answer: nearly complete inhibition

Question: And the “Effect on A1AR-mediated Akt1/2/3 phosphorylation” value (A1AR [6])?
Answer: no effect

Question: And the “Inhibition of A1AR-mediated ERK1/2 activity” value (A1AR [11])?
Answer: < 30%

Question: What about the “Effect on ERK1/2 activity triggered by the M3 acetylcholine receptor” value [12] of the same compound?
Answer: only partially inhibited

Question: And the “Effect on ERK1/2 activity triggered by the P2Y1 receptor” value (P2Y1 receptor [13])?
Answer: only partially inhibited

Question: And the “Effect on calcium response triggered by the M3 acetylcholine receptor” value [14]?
Answer: completely inhibited

Question: What about the “Effect on calcium response triggered by the P2Y1 receptor” value (P2Y1 receptor [15]) of the same compound?
Answer: completely inhibited

Question: Which EC50 (LPA receptor) does the source give for lysophosphatidic acid [LPA] here?
Answer: 4590 nM

Question: With CCCn1c(=O)[nH]c2nc(-c3ccc(S(=O)(=O)N4CCN(c5ccc(Cl)cc5)CC4)cc3)[nH]c2c1=O [PSB603] as the compound, how does the “Effect on native A2BAR (NECA)-triggered calcium mobilization” value (A2BAR [3]) read?
Answer: completely inhibited

Question: And the “Effect on NECA-induced Ca2+ increase” value (A2BAR [16])?
Answer: completely blocked

Question: Which “Effect on native A2BAR (NECA)-triggered calcium mobilization” value (A2BAR [3]; [17]) does the source give for CCCCCCCCCCCCCC(=O)O[C@@H]1[C@@H](C)[C@@]2(O)[C@@H](C=C(CO)C[C@]3(O)C(=O)C(C)=C[C@@H]23)[C@@H]2C(C)(C)[C@]12OC(C)=O [PMA, phorbol 12-myristate 13-acetate] here?
Answer: partially diminished; also recorded: PMA partially sensitive (8)

Question: And the “Effect on native P2Y1R (MRS2365)-triggered calcium mobilization” value (P2Y1R [4])?
Answer: completely eliminated

Question: And the “Effect on isoproterenol-induced calcium mobilization (β2-adrenergic receptor)” value (β2-adrenergic receptor)?
Answer: completely diminished

Question: What about the “Effect on formoterol-induced calcium mobilization (β2-adrenergic receptor)” value (β2-adrenergic receptor) of the same compound?
Answer: completely diminished; also recorded: PMA completely sensitive (8)

Question: Which EC50 (P2Y1R [4]; absence of PTX) does the source give for CSc1nc(N)c2ncn([C@H]3[C@H](O)[C@H](O)[C@]4(COP(=O)(O)OP(=O)(O)O)C[C@H]34)c2n1 [MRS2365] here?
Answer: 1.38 ± 0.26 nM
